Measurements: patent publication US20160022731A1, “[…] NITRIC OXIDE FOR TREATING RESPIRATORY DISEASES” (Advanced Inhalation Therapies (AIT) Ltd., priority 2013, published 2016)
Like-named read-outs stand apart in the source and are kept apart here.

Columns and labels:
[1] = Phase I open label safety study of intermittent inhalation of 160 ppm gNO in healthy adults; type: in vivo, human
Source text: 10 healthy adult volunteer subjects (5 males, 5 females), aged 20 to 62 years, were enrolled in the study after screening their medical history, a physical examination, pulmonary function tests and blood values. Exclusion criteria included individuals less than 19 years of age, pregnant females and unwilling to practice birth control during the study, diagnosed with pulmonary disease, epistaxis, hemoptysis, methemoglobinemia, organ transplant recipient or receiving antibiotic therapy.
After obtaining informed consent, treatment was initiated within 5 days of enrollment. Subjects were housed in a hospital ward and received 160 ppm gNO for 30 minutes every four hours (Q4 h), five times a day, for five consecutive days by inhalation. Subjects returned for follow-up evaluations 3, 7 and 21 days after the final gNO administration. Subject safety was determined by monitoring vital signs, methemoglobin levels, lung function, blood chemistry, hematology, prothrombin time, inflammatory cytokine/chemokines levels and endothelial activation. These parameters were compared to baseline and at various time-points during and after gNO administration.
Subjects were administered gNO through a modified disposable mouthpiece to maximize mixing. Inspiration was spontaneously initiated by the subject from a conventional intermittent positive pressure breathing respirator (Mark-7, Carefusion, USA) in fixed flow mode delivering 48 liters per minute (LPM). Flows of gas were verified with a calibrated mass flow meter (TSI, USA). Gaseous nitric oxide (gNO, obtained at INOmax, Ikaria, USA) at a concentration of 800 ppm delivered at a flow of 12 LPM was titrated into a distal delivery port on the mouth piece connected to the respirator during inspiratory phase only (pressure switch). The Mark 7 respirator was supplied by an air/oxygen blender (Bird Sentry, Carefusion, USA) set to deliver 26% oxygen.
The levels of gNO, NO2, O2 and methemoglobin were monitored during the administration of gNO. […] Inspiratory NO, NO2 and O2 levels were continuously monitored by sampling from the mouthpiece sample port located about 6 millimeters from the mouth of the subject with an AeroNOx (Pulmonox, AB, Canada) NO, NO2 and O2 electrochemical analyzer. Delivery safety was determined by the number of occasions that NO2 exceeded 5 ppm, gNO exceeding 10% variation and O2 dropping below 20% during gNO administration. […]
These parameters were measured continuously during every gNO administration course and for 3.5 hours after the first treatment of the day. Daily serum samples were collected and frozen at −80° C. and the serum […] level was measured using the Griess reagent.
Subjects underwent full pulmonary function tests (PFT), including lung diffusing capacity (DLCO) by a trained technician utilizing a calibrated pulmonary function system (Jaeger MasterScreen, VIASYS Healthcare, USA) on screening and days 2, 8, 12 and 26. […] Effect of gNO on lung function and DLCO was determined by changes from baseline, treatment days and follow up days.
General medical examinations were performed by a pulmonary physician on screening and on days 8, 12 and 26 to obtain oxygenation and vital sign measurements. […] Oxygenation was measured with a pulse oximeter (Rad 57, Masimo Corporation, USA) which was used according to manufacturer's guidelines to measure functional oxygen saturation of arterial hemoglobin (SpO2) and heart rate. […]

S. aureus = S. aureus on agar; 50-160 ppm gNO, vs medical air; cited from earlier work
P. aeruginosa = P. aeruginosa on agar; 50-160 ppm gNO, vs medical air; cited from earlier work
[2] = rats, cited from earlier work
[3] = healthy humans, cited from earlier work
[4] = tested on: five planktonic species of methicillin resistant S. aureus (MRSA); settings: 1,600 ppm hours of gNO; cited from earlier work
[5] = tested on: bovine respiratory disease; settings: cattle; intermittent 30 minute exposures of gNO; cited from earlier work
[6] = tested on: chronic, non-healing wound; settings: topical 200 ppm gNO; within the first three days of treatment; cited from earlier work

[N]=O [gNO, nitric oxide]
accumulative effect on SpMet ([1]; after five daily treatments for five consecutive days): no accumulative or lingering effect on SpMet | DLCO, FVC, TLC and RV ([1]; during the course of the study): did not change from baseline measurement | airflow as measured by FEV1 and MMEF ([1]; during the course of the study): did not differ from baseline | Ang-2 and Ang-2/Ang-1 ratios ([1]; plasma): not affected | cytokine levels of TNF, IL-6, IL-8, IL-10, IL-1b and IL-12p70 ([1]; plasma, compared to baseline): unaffected | survival (bactericidal trend) (S. aureus): 5-10% | survival (bactericidal trend) (P. aeruginosa): 5-10% | mortality ([2]; groups of 10, 300 ppm gNO, 6 continuous hours per day): Six of the animals treated with 300 ppm gNO died during the first 1-2 days | MetHb levels ([2]; 400 ppm gNO): 72.5 percents | MetHb levels ([2]; 500 ppm gNO): 67 percents | levels of MetHb ([3]; inhalation of gNO at 128 ppm for 3 hours): > 5% | levels of MetHb ([3]; inhalation of gNO at 512 ppm for 55 minutes): > 5% | population of planktonic MRSA strains [4]: reduction in the population of all five MRSA planktonic strains | clinical symptoms of bovine respiratory disease [5]: decrease the clinical symptoms of bovine respiratory disease | presence of biofilm in the wound [6]: no longer visibly present
